Measurements published in PMC8799717, “Pharmacological targeting PIKfyve and tubulin as an effective treatment strategy for double-hit lymphoma” (Cell Death Discovery, 2022).

Legend:
Test in all cases: biochemical
Design in all cases: KINOMEscan active-site-directed competition binding panel, 468 kinases, percent of DMSO control at 1 uM
Conditions in all cases: KINOMEscan binding, percent of DMSO control; read-out: Ctrl%
FES = FES (Homo sapiens, UniProt P07332)
[1] = molecular target: T1, RSK3(Kin.Dom.2-C-terminal) (Homo sapiens, UniProt Q15349)
T1 construct: gene RPS6KA2; Kin.Dom.2-C-terminal

SGK2 = SGK2 (Homo sapiens, UniProt Q9HBY8)
BRAF(V600E) = BRAF(V600E) (Homo sapiens, UniProt P15056, V600E)
CIT = CIT (Homo sapiens, UniProt O14578)
CHEK1 = CHEK1 (Homo sapiens, UniProt O14757)
PKN1 = PKN1 (Homo sapiens, UniProt Q16512)
ACVRL1 = ACVRL1 (Homo sapiens, UniProt P37023)
MYLK2 = MYLK2 (Homo sapiens, UniProt Q9H1R3)
BMX = BMX (Homo sapiens, UniProt P51813)
ERK8 = molecular target: T2, ERK8 (Homo sapiens, UniProt Q8TD08)
T2 construct: gene MAPK15

CLK4 = CLK4 (Homo sapiens, UniProt Q9HAZ1)
RIOK3 = RIOK3 (Homo sapiens, UniProt O14730)
FGFR3(G697C) = FGFR3(G697C) (Homo sapiens, UniProt P22607, G697C)
SNARK = molecular target: T3, SNARK (Homo sapiens, UniProt Q9H093)
T3 construct: gene NUAK2

TRKA = molecular target: T4, TRKA (Homo sapiens, UniProt P04629)
T4 construct: gene NTRK1

SGK3 = SGK3 (Homo sapiens, UniProt Q96BR1)
MRCKB = molecular target: T5, MRCKB (Homo sapiens, UniProt Q9Y5S2)
T5 construct: gene CDC42BPB

FGFR4 = FGFR4 (Homo sapiens, UniProt P22455)
CSF1R-autoinhibited = CSF1R-autoinhibited (Homo sapiens, UniProt P07333)
FLT3(D835Y) = FLT3(D835Y) (Homo sapiens, UniProt P36888, D835Y)
[2] = molecular target: T6, ABL1(F317L)-nonphosphorylated (Homo sapiens, UniProt P00519, F317L)
T6 construct: nonphosphorylated

AKT2 = AKT2 (Homo sapiens, UniProt P31751)
WNK4 = WNK4 (Homo sapiens, UniProt Q96J92)

T2 sequence (Q8TD08 whole entry): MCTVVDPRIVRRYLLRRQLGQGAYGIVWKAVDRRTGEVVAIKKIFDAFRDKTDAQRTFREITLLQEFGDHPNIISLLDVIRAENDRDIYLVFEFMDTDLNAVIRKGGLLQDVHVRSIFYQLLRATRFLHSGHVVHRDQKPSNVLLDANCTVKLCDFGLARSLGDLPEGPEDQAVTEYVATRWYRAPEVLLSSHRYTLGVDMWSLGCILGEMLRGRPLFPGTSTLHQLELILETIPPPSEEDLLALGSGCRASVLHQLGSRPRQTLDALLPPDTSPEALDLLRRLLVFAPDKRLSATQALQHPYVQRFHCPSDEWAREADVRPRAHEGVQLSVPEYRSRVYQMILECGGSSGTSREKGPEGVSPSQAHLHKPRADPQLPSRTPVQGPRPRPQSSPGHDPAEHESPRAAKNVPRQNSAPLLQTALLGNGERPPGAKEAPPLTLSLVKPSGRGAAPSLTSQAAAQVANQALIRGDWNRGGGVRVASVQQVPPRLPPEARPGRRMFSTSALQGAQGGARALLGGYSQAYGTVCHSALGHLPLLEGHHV
T4 sequence (P04629 whole entry): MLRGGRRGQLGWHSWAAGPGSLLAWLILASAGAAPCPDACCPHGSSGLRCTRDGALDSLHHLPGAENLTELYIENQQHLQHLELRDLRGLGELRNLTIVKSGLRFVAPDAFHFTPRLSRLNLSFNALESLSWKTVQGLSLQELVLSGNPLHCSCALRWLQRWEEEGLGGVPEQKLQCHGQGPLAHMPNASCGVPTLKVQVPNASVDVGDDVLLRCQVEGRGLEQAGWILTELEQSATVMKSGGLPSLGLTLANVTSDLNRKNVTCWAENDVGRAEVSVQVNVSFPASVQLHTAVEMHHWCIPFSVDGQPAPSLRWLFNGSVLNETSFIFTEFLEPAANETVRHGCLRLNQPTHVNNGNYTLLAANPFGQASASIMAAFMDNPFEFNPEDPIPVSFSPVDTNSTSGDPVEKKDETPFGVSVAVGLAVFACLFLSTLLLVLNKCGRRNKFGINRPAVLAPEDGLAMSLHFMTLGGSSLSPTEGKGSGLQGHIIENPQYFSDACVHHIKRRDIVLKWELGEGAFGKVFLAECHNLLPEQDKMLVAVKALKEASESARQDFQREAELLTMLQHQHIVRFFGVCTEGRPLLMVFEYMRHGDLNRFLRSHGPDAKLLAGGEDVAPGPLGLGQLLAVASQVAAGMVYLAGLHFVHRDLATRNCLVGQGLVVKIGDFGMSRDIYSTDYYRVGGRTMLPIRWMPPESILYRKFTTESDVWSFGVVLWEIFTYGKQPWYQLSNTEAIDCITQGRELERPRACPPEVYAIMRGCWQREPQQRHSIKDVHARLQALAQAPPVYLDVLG
Sequence of FGFR4 (P22455 whole entry): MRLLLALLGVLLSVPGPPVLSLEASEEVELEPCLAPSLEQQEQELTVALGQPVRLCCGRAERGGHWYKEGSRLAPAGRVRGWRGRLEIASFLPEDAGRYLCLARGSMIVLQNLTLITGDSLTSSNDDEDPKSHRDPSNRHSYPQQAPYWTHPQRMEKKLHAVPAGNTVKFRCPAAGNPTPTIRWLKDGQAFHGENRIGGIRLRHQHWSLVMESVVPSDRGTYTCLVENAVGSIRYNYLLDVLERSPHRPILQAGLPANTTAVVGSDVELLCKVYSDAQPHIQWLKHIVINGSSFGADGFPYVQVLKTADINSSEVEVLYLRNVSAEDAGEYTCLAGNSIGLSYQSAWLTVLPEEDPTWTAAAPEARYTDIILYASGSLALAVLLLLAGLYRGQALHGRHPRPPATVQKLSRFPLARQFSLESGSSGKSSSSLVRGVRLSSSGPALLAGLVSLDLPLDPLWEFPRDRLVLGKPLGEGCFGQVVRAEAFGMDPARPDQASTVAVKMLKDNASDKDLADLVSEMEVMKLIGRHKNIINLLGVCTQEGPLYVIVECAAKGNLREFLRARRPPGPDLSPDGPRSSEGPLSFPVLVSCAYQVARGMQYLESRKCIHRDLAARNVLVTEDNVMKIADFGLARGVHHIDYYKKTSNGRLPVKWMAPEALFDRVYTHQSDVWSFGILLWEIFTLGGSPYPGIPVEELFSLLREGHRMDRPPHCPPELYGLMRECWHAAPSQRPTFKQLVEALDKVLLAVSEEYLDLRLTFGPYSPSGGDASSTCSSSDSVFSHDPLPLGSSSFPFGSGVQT
Sequence of RIOK3 (O14730 whole entry): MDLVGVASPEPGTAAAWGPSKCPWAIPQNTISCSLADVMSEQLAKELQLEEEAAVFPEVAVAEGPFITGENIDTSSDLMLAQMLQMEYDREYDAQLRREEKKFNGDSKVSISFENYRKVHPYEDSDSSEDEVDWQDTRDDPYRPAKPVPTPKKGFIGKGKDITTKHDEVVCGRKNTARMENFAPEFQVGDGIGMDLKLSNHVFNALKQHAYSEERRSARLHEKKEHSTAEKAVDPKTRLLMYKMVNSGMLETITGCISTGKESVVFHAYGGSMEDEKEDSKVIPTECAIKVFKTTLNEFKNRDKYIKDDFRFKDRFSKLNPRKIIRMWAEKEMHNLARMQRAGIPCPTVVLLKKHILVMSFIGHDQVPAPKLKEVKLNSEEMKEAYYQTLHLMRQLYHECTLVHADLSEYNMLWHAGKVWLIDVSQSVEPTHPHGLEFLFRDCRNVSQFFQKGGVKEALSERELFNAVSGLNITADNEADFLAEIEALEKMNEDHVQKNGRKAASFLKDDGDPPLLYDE
T5 sequence (Q9Y5S2 whole entry): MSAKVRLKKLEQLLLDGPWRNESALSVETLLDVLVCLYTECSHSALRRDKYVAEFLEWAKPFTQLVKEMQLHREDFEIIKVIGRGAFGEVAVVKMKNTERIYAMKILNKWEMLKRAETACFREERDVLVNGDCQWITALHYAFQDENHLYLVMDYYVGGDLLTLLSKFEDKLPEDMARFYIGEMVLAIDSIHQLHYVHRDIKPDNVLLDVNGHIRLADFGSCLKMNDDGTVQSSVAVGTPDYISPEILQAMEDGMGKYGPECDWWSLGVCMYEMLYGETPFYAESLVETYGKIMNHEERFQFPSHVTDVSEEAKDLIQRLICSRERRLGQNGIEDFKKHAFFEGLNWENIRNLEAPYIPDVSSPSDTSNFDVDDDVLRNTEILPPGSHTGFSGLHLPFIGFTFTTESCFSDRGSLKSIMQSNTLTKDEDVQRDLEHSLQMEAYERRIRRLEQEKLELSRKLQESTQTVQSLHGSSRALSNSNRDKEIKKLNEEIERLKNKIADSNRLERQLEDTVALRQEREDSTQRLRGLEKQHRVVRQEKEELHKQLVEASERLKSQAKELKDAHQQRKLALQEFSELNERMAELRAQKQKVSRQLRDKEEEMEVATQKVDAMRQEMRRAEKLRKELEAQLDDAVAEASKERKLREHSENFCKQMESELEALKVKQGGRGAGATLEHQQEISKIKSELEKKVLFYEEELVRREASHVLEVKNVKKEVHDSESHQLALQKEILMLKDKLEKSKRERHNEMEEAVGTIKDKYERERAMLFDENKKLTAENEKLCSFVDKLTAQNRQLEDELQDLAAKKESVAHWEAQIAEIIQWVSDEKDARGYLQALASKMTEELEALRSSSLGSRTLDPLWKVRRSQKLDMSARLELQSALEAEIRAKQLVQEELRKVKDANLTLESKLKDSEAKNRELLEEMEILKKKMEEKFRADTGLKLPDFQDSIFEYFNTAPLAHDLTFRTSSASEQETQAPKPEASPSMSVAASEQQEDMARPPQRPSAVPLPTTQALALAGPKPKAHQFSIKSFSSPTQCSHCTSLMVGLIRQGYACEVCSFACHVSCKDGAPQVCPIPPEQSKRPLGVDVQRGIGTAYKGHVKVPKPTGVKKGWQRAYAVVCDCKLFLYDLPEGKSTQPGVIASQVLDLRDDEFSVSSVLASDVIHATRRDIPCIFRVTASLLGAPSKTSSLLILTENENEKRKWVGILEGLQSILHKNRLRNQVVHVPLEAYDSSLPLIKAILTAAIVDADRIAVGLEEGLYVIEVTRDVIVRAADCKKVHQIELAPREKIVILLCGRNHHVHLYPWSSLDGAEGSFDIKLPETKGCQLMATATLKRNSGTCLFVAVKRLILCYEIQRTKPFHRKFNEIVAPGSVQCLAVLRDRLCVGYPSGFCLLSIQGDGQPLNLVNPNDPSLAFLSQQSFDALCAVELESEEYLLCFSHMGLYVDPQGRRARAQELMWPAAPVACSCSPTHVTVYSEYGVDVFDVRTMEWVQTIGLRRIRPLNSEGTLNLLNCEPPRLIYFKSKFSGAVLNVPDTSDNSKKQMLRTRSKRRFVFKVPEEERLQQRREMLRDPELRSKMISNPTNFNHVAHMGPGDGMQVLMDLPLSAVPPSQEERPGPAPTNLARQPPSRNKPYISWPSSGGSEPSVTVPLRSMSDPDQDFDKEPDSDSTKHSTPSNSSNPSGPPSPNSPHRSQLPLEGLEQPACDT
Sequence of SGK3 (Q96BR1 whole entry): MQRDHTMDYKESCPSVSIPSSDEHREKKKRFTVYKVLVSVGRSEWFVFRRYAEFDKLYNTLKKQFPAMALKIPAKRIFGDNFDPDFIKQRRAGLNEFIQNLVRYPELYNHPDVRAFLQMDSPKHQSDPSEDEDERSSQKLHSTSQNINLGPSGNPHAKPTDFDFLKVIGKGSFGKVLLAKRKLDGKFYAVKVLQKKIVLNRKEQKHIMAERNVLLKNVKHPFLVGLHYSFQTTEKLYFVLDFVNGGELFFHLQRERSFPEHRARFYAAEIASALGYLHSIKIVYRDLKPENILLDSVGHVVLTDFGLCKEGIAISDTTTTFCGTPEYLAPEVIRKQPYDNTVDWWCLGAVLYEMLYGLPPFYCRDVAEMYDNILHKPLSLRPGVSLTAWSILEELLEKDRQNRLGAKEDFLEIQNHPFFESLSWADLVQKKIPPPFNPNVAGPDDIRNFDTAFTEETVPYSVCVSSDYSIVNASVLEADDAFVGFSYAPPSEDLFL

Cc1ccc(NC(=O)c2cccc(C(F)(F)F)c2)cc1Nc1cc(-c2cccnc2)nc2[nH]ccc12 [HZX-02-059]
remaining binding at 1 µM (FES): 100%
remaining binding at 1 µM [1]: 89%
remaining binding at 1 µM (SGK2): 99%
remaining binding at 1 µM (BRAF(V600E)): 4.5%
remaining binding at 1 µM (CIT): 64%
remaining binding at 1 µM (CHEK1): 88%
remaining binding at 1 µM (PKN1): 93%
remaining binding at 1 µM (ACVRL1): 75%
remaining binding at 1 µM (MYLK2): 100%
remaining binding at 1 µM (BMX): 80%
remaining binding at 1 µM (ERK8): 92%
remaining binding at 1 µM (CLK4): 94%
remaining binding at 1 µM (RIOK3): 100%
remaining binding at 1 µM (FGFR3(G697C)): 100%
remaining binding at 1 µM (SNARK): 99%
remaining binding at 1 µM (TRKA): 100%
remaining binding at 1 µM (SGK3): 100%
remaining binding at 1 µM (MRCKB): 100%
remaining binding at 1 µM (FGFR4): 91%
remaining binding at 1 µM (CSF1R-autoinhibited): 93%
remaining binding at 1 µM (FLT3(D835Y)): 100%
remaining binding at 1 µM [2]: 60%
remaining binding at 1 µM (AKT2): 85%
remaining binding at 1 µM (WNK4): 100%
